{
  "source": "patent US20250198442A1",
  "about": "“GAMMA POLYGLUTAMATED PEMETREXED AND USES THEREOF” (L.E.A.F. HOLDINGS GROUP LLC, priority 2020, published 2025)",
  "key": {"[1]": {"tested_on": "NCI H2342 non-small cell lung cancer (NSCLC), adenocarcinoma subtype", "test": "CellTiter-Glo cell viability dose response, NCI H2342", "assay_type": "cell-based, human", "settings": "H2342, 48 hours of treatment, rank among test articles", "protocol": "(§1) The CTG assay uses luciferase as a readout.\n(§2) Luciferase luminescence were recorded for each well."}, "[2]": {"tested_on": "HT-29 (colon cancer)", "test": "CellTiter-Glo cell viability dose response, HT-29", "assay_type": "cell-based, human", "settings": "HT-29, 48 hours, rank among test articles", "protocol": "as §1, §2"}, "[3]": {"tested_on": "AML12 liver cells", "test": "Toxicity to AML12 liver cells", "assay_type": "cell-based", "settings": "all doses studied (16 to 128 nM), 48 hours", "text": "(§3) Methodologies used for cell line AML12 (non-cancerous liver cells) and CCD841 (non-cancerous colon epithelial cells) are similar to the methods used for cancer cells."}, "[4]": {"tested_on": "CCD841 colon epithelium cells", "test": "Toxicity to CCD841 colon epithelium cells", "assay_type": "cell-based", "settings": "16 nM, 32 nM, 64 nM and 128 nM, 48 hours", "text": "as §3"}},
  "data": [
    {"compound": "Nc1nc(=O)c2c(CCc3ccc(C(=O)N[C@@H](CCC(=O)N[C@@H](CCC(=O)N[C@@H](CCC(=O)N[C@@H](CCC(=O)N[C@@H](CCC(=O)N[C@@H](CCC(=O)O)C(=O)O)C(=O)O)C(=O)O)C(=O)O)C(=O)O)C(=O)O)cc3)c[nH]c2[nH]1", "note": "[gG6, pemetrexed L-gamma hexaglutamate]", "values": [
      {"measurement": "potency as measured by IC50", "setting": "[1]", "value": "least potent"},
      {"measurement": "potency (cell viability)", "setting": "[2]", "value": "least potent"}
    ]},
    {"compound": "Nc1nc2[nH]cc(CCc3ccc(C(=O)N[C@@H](CCC(=O)O)C(=O)O)cc3)c2c(=O)[nH]1", "note": "[pemetrexed]", "values": [
      {"measurement": "reduction in the AML12 liver cell counts", "setting": "[3]", "value": "approximately 40%"},
      {"measurement": "decrease in the number of CCD841 colon epithelium cells", "setting": "[4]", "value": "≥ 50", "unit": "%"}
    ]}
  ]
}
